Like-named read-outs stand apart in the source and are kept apart here.
Experiments:
Format in all cases: in vivo
[1] = test system: Galium (catchweed bedstraw, Galium aparine); experiment: Test A postemergence; conditions: Galium, post-emergence, 240 h; for pest or weed control at 125 g/ha: 125 g ai/ha, visual injury vs untreated controls after approx. 10 d, 0 = no effect, 100 = complete control, read-out: Galium plant response rating (0 to 100 scale); for pest or weed control at 500 g/ha: 500 g ai/ha
Summary of the method: (§1)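 Preemergence directed soil spray on seeded pots, or postemergence application to plants 2–10 cm, one- to two-leaf. Solvent mixture non-phytotoxic, with surfactant. Scored ~10 d later, visually, 0–100 vs untreated.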

[2] = test system: Kochia (Kochia scoparia); experiment: Test A postemergence; conditions: Bassia scoparia, post-emergence, 240 h; for pest or weed control at 125 g/ha: 125 g ai/ha, visual injury vs untreated controls after approx. 10 d, 0 = no effect, 100 = complete control, read-out: Kochia plant response rating (0 to 100 scale); for pest or weed control at 500 g/ha: 500 g ai/ha
Summary of the method: as §1

[3] = test system: barnyardgrass (Echinochloa crus-galli); experiment: Test A postemergence; conditions: Echinochloa crus-galli, post-emergence, 240 h; for pest or weed control at 125 g/ha: 125 g ai/ha, visual injury vs untreated controls after approx. 10 d, 0 = no effect, 100 = complete control, read-out: Barnyardgrass plant response rating (0 to 100 scale); for pest or weed control at 500 g/ha: 500 g ai/ha
Summary of the method: as §1

[4] = test system: blackgrass (Alopecurus myosuroides); experiment: Test A postemergence; conditions: Alopecurus myosuroides, post-emergence, 240 h; for pest or weed control at 125 g/ha: 125 g ai/ha, visual injury vs untreated controls after approx. 10 d, 0 = no effect, 100 = complete control, read-out: Blackgrass plant response rating (0 to 100 scale); for pest or weed control at 500 g/ha: 500 g ai/ha
Summary of the method: as §1

[5] = test system: corn (Zea mays); experiment: Test A postemergence; conditions: Zea mays, post-emergence, 240 h; for plant injury at 125 g/ha: 125 g ai/ha, visual injury vs untreated controls after approx. 10 d, 0 = no effect, 100 = complete control, read-out: Corn plant response rating (0 to 100 scale)
Summary of the method: as §1

[6] = test system: giant foxtail (Setaria faberii); experiment: Test A postemergence; conditions: Setaria faberi, post-emergence, 240 h; for pest or weed control at 125 g/ha: 125 g ai/ha, visual injury vs untreated controls after approx. 10 d, 0 = no effect, 100 = complete control, read-out: Foxtail, Giant plant response rating (0 to 100 scale); for pest or weed control at 500 g/ha: 500 g ai/ha
Summary of the method: as §1

[7] = test system: pigweed (Amaranthus retroflexus); experiment: Test A postemergence; conditions: Amaranthus retroflexus, post-emergence, 240 h; for pest or weed control at 125 g/ha: 125 g ai/ha, visual injury vs untreated controls after approx. 10 d, 0 = no effect, 100 = complete control, read-out: Pigweed plant response rating (0 to 100 scale); for pest or weed control at 500 g/ha: 500 g ai/ha
Summary of the method: as §1

[8] = test system: ragweed (common ragweed, Ambrosia elatior); experiment: Test A postemergence; conditions: Ambrosia artemisiifolia, post-emergence, 240 h; for pest or weed control at 125 g/ha: 125 g ai/ha, visual injury vs untreated controls after approx. 10 d, 0 = no effect, 100 = complete control, read-out: Ragweed plant response rating (0 to 100 scale); for pest or weed control at 500 g/ha: 500 g ai/ha
Summary of the method: as §1

[9] = test system: ryegrass, Italian (Italian ryegrass, Lolium multiflorum); experiment: Test A postemergence; conditions: Lolium multiflorum, post-emergence, 240 h; for pest or weed control at 125 g/ha: 125 g ai/ha, visual injury vs untreated controls after approx. 10 d, 0 = no effect, 100 = complete control, read-out: Ryegrass, Italian plant response rating (0 to 100 scale); for pest or weed control at 500 g/ha: 500 g ai/ha
Summary of the method: as §1

[10] = test system: wheat (Triticum aestivum); experiment: Test A postemergence; conditions: Triticum aestivum, post-emergence, 240 h; for plant injury at 125 g/ha: 125 g ai/ha, visual injury vs untreated controls after approx. 10 d, 0 = no effect, 100 = complete control, read-out: Wheat plant response rating (0 to 100 scale); for plant injury at 500 g/ha: 500 g ai/ha
Summary of the method: as §1

[11] = test system: barnyardgrass (Echinochloa crus-galli); experiment: Test B flooded paddy test; conditions: Echinochloa crus-galli, 250 g ai/ha, Flood; 0 to 100 scale where 0 is no effect and 100 is complete control; read-out: Barnyardgrass plant response rating
Summary of the method: (§2)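 Evaluation by eye, against controls, occurred 13–15 d post-treatment in a greenhouse, using a 0 (no effect) to 100 (complete control) scale. Application was into the paddy water, 3 cm deep over the soil, on 2-leaf plants.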

[12] = test system: ducksalad (Heteranthera limosa); experiment: Test B flooded paddy test; conditions: Heteranthera limosa, 250 g ai/ha, Flood; 0 to 100 scale where 0 is no effect and 100 is complete control; read-out: Ducksalad plant response rating
Summary of the method: as §2

[13] = test system: rice (Oryra sativa); experiment: Test B flooded paddy test; conditions: Oryza sativa, 250 g ai/ha, Flood; 0 to 100 scale where 0 is no effect and 100 is complete control; read-out: Rice plant response rating
Summary of the method: as §2

[14] = test system: sedge, umbrella (small-flower umbrella sedge, Cyperus difformis); experiment: Test B flooded paddy test; conditions: Cyperus difformis, 250 g ai/ha, Flood; 0 to 100 scale where 0 is no effect and 100 is complete control; read-out: Sedge, Umbrella plant response rating
Summary of the method: as §2

Row | Structure (SMILES) | pest or weed control at 125 g/ha ([1]; postemergence) | pest or weed control at 125 g/ha ([2]; postemergence) | pest or weed control at 125 g/ha ([3]; postemergence) | pest or weed control at 125 g/ha ([4]; postemergence) | plant injury at 125 g/ha ([5]; postemergence) | pest or weed control at 125 g/ha ([6]; postemergence) | pest or weed control at 125 g/ha ([7]; postemergence) | pest or weed control at 125 g/ha ([8]; postemergence) | pest or weed control at 125 g/ha ([9]; postemergence) | plant injury at 125 g/ha ([10]; postemergence) | pest or weed control at 250 g/ha [11] | pest or weed control at 250 g/ha [12] | pest or weed control at 250 g/ha [13] | pest or weed control at 250 g/ha [14] | further results
1 | CSc1ccccc1NC(=O)[C@H]1C(=O)N(C)C[C@@H]1c1ccc2c(c1)OC(F)(F)O2 [Compound 1251] | 50% | 50% | 80% | 0% | 20% | 70% | 70% | 0% | 20% | 30% | 0% | 90% | 0% | 0% | pest or weed control at 500 g/ha ([1]; Postemergence, visual injury, 0 to 100 scale (0 no effect, 100 complete control), approx. 10 d, read-out: Plant response rating, Galium): 50%; pest or weed control at 500 g/ha ([2]; Postemergence, visual injury, 0 to 100 scale (0 no effect, 100 complete control), approx. 10 d, read-out: Plant response rating, Kochia): 70%; pest or weed control at 500 g/ha ([3]; Postemergence, visual injury, 0 to 100 scale (0 no effect, 100 complete control), approx. 10 d, read-out: Plant response rating, Barnyardgrass): 100%; pest or weed control at 500 g/ha ([4]; Postemergence, visual injury, 0 to 100 scale (0 no effect, 100 complete control), approx. 10 d, read-out: Plant response rating, Blackgrass): 40%; Corn plant response rating (crop injury, 0 = no effect, 100 = complete kill) at 500 g/ha ([5]; Postemergence, 500 g ai/ha, visual injury, 0 to 100 scale (0 no effect, 100 complete control), approx. 10 d): 80%; pest or weed control at 500 g/ha ([6]; Postemergence, visual injury, 0 to 100 scale (0 no effect, 100 complete control), approx. 10 d, read-out: Plant response rating, Foxtail, Giant): 80%; pest or weed control at 500 g/ha ([7]; Postemergence, visual injury, 0 to 100 scale (0 no effect, 100 complete control), approx. 10 d, read-out: Plant response rating, Pigweed): 80%; pest or weed control at 500 g/ha ([8]; Postemergence, visual injury, 0 to 100 scale (0 no effect, 100 complete control), approx. 10 d, read-out: Plant response rating, Ragweed): 50%; pest or weed control at 500 g/ha ([9]; Postemergence, visual injury, 0 to 100 scale (0 no effect, 100 complete control), approx. 10 d, read-out: Plant response rating, Ryegrass, Italian): 40%; plant injury at 500 g/ha ([10]; Postemergence, visual injury, 0 to 100 scale (0 no effect, 100 complete control), approx. 10 d, read-out: Plant response rating, Wheat): 60%
2 | Cc1c(F)cccc1NC(=O)[C@H]1C(=O)N(C)C[C@@H]1c1ccc(F)c(Br)c1 [Compound 1211] | 50% | 0% | 100% | 30% | 80% | 80% | 30% | 0% | 0% | 30% | 85% | 100% | 60% | 0% | pest or weed control at 500 g/ha ([1]; postemergence, 0 to 100 scale, 0 is no effect, 100 is complete control, read-out: Galium plant response rating): 60%; pest or weed control at 500 g/ha ([2]; postemergence, 0 to 100 scale, 0 is no effect, 100 is complete control, read-out: Kochia plant response rating): 30%; pest or weed control at 500 g/ha ([3]; postemergence, 0 to 100 scale, 0 is no effect, 100 is complete control, read-out: Barnyardgrass plant response rating): 100%; pest or weed control at 500 g/ha ([4]; postemergence, 0 to 100 scale, 0 is no effect, 100 is complete control, read-out: Blackgrass plant response rating): 40%; plant injury at 500 g/ha ([5]; 500 g ai/ha, postemergence, 0 to 100 scale, 0 is no effect, 100 is complete control, read-out: Corn plant response rating): 90%; pest or weed control at 500 g/ha ([6]; postemergence, 0 to 100 scale, 0 is no effect, 100 is complete control, read-out: Foxtail, Giant plant response rating): 80%; pest or weed control at 500 g/ha ([7]; postemergence, 0 to 100 scale, 0 is no effect, 100 is complete control, read-out: Pigweed plant response rating): 30%; pest or weed control at 500 g/ha ([8]; postemergence, 0 to 100 scale, 0 is no effect, 100 is complete control, read-out: Ragweed plant response rating): 0%; pest or weed control at 500 g/ha ([9]; postemergence, 0 to 100 scale, 0 is no effect, 100 is complete control, read-out: Ryegrass, Italian plant response rating): 70%; plant injury at 500 g/ha ([10]; postemergence, 0 to 100 scale, 0 is no effect, 100 is complete control, read-out: Wheat plant response rating): 60%

From patent publication US12077503B2, “Substituted cyclic amides and their use as herbicides” (FMC CORPORATION, priority 2015, dated 2024)
